Test results as given in ChEMBL document CHEMBL1201862, “PubChem BioAssay data set” (2004).
The source made the active and inactive calls.

Assays:
[1] = target: T1, Replicative DNA helicase DnaB (Mycobacterium tuberculosis, UniProt P9WMR3); assay: DnaB intein splicing inhibitors, dose response, biochemical, cell-free fluorescence (AID 449749); assay type: functional
T1 sequence (P9WMR3 whole entry): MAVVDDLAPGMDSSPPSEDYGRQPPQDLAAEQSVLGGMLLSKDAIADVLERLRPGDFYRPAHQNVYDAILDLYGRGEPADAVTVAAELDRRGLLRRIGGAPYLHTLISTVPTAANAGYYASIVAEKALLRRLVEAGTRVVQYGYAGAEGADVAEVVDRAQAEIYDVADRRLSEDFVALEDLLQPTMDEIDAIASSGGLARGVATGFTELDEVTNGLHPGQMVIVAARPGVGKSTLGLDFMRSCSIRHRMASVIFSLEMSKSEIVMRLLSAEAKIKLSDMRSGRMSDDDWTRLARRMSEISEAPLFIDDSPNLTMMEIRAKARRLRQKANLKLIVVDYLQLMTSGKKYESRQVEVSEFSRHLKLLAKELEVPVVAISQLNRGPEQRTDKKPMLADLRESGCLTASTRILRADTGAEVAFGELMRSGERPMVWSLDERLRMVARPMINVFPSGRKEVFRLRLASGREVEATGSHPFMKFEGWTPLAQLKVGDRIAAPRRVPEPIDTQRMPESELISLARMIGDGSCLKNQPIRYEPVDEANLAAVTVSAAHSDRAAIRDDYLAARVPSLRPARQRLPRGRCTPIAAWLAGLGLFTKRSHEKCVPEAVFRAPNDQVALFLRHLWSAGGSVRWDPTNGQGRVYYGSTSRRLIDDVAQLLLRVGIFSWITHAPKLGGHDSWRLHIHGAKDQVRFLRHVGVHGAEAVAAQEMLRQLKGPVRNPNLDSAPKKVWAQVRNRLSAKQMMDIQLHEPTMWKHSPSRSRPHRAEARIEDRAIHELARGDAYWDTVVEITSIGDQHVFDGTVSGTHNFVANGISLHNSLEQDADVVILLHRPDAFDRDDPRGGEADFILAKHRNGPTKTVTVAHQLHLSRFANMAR

Protein RecA = target: T2, Protein RecA (Mycobacterium tuberculosis, UniProt P9WHJ3); assay: Fluorescence Cell-Free Homogeneous Dose Retest to Identify Inhibitors of RecA-Intein Splicing Activity. [Related pubchem assays (depositor defined):AID2097, AID2223, AID489010, AID492950]; assay type: functional
T2 sequence (P9WHJ3 whole entry): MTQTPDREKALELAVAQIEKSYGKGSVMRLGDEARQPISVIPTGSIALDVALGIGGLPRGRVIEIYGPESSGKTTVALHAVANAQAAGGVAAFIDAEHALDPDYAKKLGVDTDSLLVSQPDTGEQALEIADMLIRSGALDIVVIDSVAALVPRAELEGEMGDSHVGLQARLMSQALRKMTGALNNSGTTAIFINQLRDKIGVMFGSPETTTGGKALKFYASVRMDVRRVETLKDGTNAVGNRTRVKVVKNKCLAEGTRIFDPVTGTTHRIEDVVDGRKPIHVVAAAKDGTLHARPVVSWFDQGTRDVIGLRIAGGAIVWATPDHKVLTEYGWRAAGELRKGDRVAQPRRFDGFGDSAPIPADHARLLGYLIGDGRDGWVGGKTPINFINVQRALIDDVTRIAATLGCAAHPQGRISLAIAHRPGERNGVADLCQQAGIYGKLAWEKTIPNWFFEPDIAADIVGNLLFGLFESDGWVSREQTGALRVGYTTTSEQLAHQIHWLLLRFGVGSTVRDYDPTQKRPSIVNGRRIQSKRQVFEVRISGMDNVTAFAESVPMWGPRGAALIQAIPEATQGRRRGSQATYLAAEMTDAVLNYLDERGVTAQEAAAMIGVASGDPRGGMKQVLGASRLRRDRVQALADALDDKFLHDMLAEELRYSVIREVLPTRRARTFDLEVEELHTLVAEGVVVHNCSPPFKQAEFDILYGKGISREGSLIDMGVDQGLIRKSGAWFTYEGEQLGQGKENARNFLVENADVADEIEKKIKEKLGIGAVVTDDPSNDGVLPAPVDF

[2] = reduction of Shn3 3'UTR-driven luciferase in osteoblasts – cell-based, Clone20 osteoblasts, firefly luciferase, cherry-picked, dose response (AID 624132); assay type: functional;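 further: firefly luciferase luminescence from reporter carrying the Shn3 3'UTR in osteoblasts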
[3] = loss of viability in HepG2 cells – cell-based, CellTiter-Glo, cherry-picked, cytotoxicity control for Shn3 inhibitor project, dose response (AID 624134); assay type: functional
[4] = non-specific 3'UTR reporter inhibition in Clone20-Shn3RL – cell-based, Renilla luciferase, cherry-picked, counter-screen for Shn3 inhibitor project, dose response (AID 624133); assay type: functional
[5] = target: FAD-linked sulfhydryl oxidase ALR (Homo sapiens, UniProt P55789); assay: ALR-catalysed DTT oxidation blockers – biochemical, H2O2 detection, luminescence, cherry-pick, dose response (AID 493248)
[6] = luciferase reporter signal suppression in cells – H4 neuroglioma cells, luminescence, dose response (AID 1990); assay type: functional, cell-based
[7] = Luminescence Cell-Based Dose Response HTS to Identify Inhibitors of 5'UTR Stem-Loop Driven Prion Protein mRNA Translation in H4 Neuroglioblastoma Cells. [Related pubchem assays: 1827 (Project Summary), 1813 (Primary HTS)]; assay type: functional
[8] = alpha-synuclein stem-loop luciferase translation blockers – H4 neuroglioma cells, luminescence, confirmation (AID 1988); assay type: functional, cell-based
P388/ADR = assay: cells; assay type: functional; conditions: Mus musculus
SN12K1 = assay: cells; assay type: functional; conditions: Homo sapiens
P388 = assay: cells; assay type: functional; conditions: Mus musculus
BJ [9] = assay: BJ-TERT fibroblast viability loss – cell-based, RAS-independent, luminescence, dose response (AID 1933); assay type: functional; conditions: Homo sapiens
BJ [10] = assay: cells; assay type: functional, cell-based; conditions: Homo sapiens
BJ [11] = assay: BJ-TERT-LT-ST fibroblast viability loss – cell-based, RAS-independent, luminescence, dose response (AID 1935); assay type: functional; conditions: Homo sapiens;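 further: BJ fibroblasts immortalized with TERT plus LT and ST oncogenes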
[12] = DRD fibroblast viability loss – cell-based, non-viral oncogenic, luminescence, dose response (AID 1934); assay type: functional; conditions: Homo sapiens

FAD-linked sulfhydryl oxidase ALR, sequence (P55789 whole entry): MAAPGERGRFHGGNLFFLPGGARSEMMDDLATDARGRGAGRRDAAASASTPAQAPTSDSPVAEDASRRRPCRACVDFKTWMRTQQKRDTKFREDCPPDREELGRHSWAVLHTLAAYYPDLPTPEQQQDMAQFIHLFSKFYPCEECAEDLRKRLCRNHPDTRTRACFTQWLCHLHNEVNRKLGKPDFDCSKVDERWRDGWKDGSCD

Q: With `O=C(CSc1nc2ccccc2nc1SCC(=O)N1CCOCC1)N1CCOCC1` as the molecule, how does the AC50 [1] read?
A: 194 µM (active)

Q: What about the EC50 (Protein RecA) of the same molecule?
A: > 380 µM (inactive)

Q: Which AC50 [2] does the source give for `Cc1ccc(C)c(NC(=O)CN(C)C(=O)c2cccc(S(=O)(=O)N3CCN(Cc4ccccc4)CC3)c2)c1` here?
A: 3.5 µM (active)

Q: And the AC50 [3]?
A: 62.2 µM (active)

Q: What about the AC50 [4] of the same molecule?
A: 5.74 µM (active)

Q: For `O=C(C1CCCCC1)N1CCN=C1SCc1cccnc1`, which AC50 [5] is on record?
A: 0.097 µM (active)

Q: Which AC50 [5] does the source give for `Cc1[nH]c2ccccc2c1/C=N/NC(=O)Cc1cccs1` here?
A: 4.46 µM (active)

Q: With `COc1cccc(N2CCN(C(=O)c3ccc(C[S+]([O-])c4ccc(Cl)cc4)o3)CC2)c1` (stereo unspecified) as the molecule, how does the EC50 [6] read?
A: 4.79 µM (inconclusive)

Q: What about the EC50 [7] of the same molecule?
A: 6.76 µM (active)

Q: And the EC50 [8]?
A: 0.67 µM (active)

Q: What about the AC50 [5] of the same molecule?
A: 3.44 µM (active)

Q: For `CC12CCC3C(CCC4(O)C=CCCC34C=O)C1(O)CC(O)C2c1ccc(=O)oc1` (stereo unspecified), which GI50 (P388/ADR) is on record?
A: > 500 µM (inactive)

Q: And the GI50 (SN12K1)?
A: 0.0624 µM (active)

Q: And the GI50 (P388)?
A: 336 µM (inactive)

Q: For `CCOC(=O)COc1ccccc1/C=C1\CCC(CN(C)C)C1=O` (stereo unspecified), which GI50 (P388/ADR) is on record?
A: 0.436 µM (active)

Q: What about the GI50 (SN12K1) of the same molecule?
A: 1.87 µM (inactive)

Q: What about the GI50 (P388) of the same molecule?
A: 0.342 µM (active)

Q: With `CC1(C)S[C@@H]2[C@H](NC(=O)CCC[C@@H](N)C(=O)O)C(=O)N2[C@H]1C(=O)O` [ADICILLIN] as the molecule, how does the GI50 (P388/ADR) read?
A: > 50 µM (inactive)

Q: And the GI50 (SN12K1)?
A: > 50 µM (inactive)

Q: What about the GI50 (P388) of the same molecule?
A: > 50 µM (inactive)

Q: For `CC1(CO)C(O)CCC2(C)C1CCC1CC3CC12CCC3(O)CO` (stereo unspecified), which GI50 (P388/ADR) is on record?
A: 0.42 µM (active)

Q: What about the GI50 (SN12K1) of the same molecule?
A: 1.16 µM (inactive)

Q: What about the GI50 (P388) of the same molecule?
A: 0.394 µM (active)

Q: Which AC50 [5] does the source give for `COc1cccc(CNn2cnnc2)c1O` here?
A: 2.23 µM (active)

Q: For `COc1ccc(C)cc1NC(=O)CNC(c1ccccc1)c1ccc(C)cc1` (stereo unspecified), which EC50 [6] is on record?
A: 10.3 µM (active)

Q: And the EC50 (BJ [9])?
A: 2.53 µM (active)

Q: And the EC50 [8]?
A: 0.205 µM (active)

Q: And the EC50 (BJ [10])?
A: 50.2 µM (inconclusive)

Q: And the EC50 (BJ [11])?
A: 2.79 µM (active)

Q: What about the EC50 [12] of the same molecule?
A: 1.39 µM (active)

Q: Which GI50 (P388/ADR) does the source give for `O=[N+]([O-])c1ccc(Nc2cccc3c4cc[nH]c(-c5ccccc5)c-4nc23)c([N+](=O)[O-])c1` here?
A: 14.3 µM (inactive)

Q: What about the GI50 (SN12K1) of the same molecule?
A: 10 µM (inactive)

Q: What about the GI50 (P388) of the same molecule?
A: 20.1 µM (inactive)

Q: Which AC50 [2] does the source give for `C=CCNc1nc(N2CCOCC2)c(C#N)c2c1CN(C)CC2` here?
A: > 70 µM (inactive)

Q: What about the AC50 [4] of the same molecule?
A: 28.2 µM (active)

Q: For `CCCCNC(=O)c1ccc(CS(=O)(=O)c2ccc(C)cc2)o1`, which AC50 [5] is on record?
A: 15.6 µM (active)

Q: With `O=C(Nc1ccc(Cl)cn1)c1cccc(F)c1` as the molecule, how does the EC50 (BJ [9]) read?
A: 18.4 µM (active)

Q: What about the EC50 (BJ [10]) of the same molecule?
A: 35.6 µM (active)

Q: And the EC50 (BJ [11])?
A: > 150 µM (inconclusive)

Q: What about the EC50 [12] of the same molecule?
A: 18.4 µM (active)

Q: For `CC(C)=CCc1c(O)ccc2c1OC1c3ccc(O)c(CC=C(C)C)c3OCC21` (stereo unspecified), which GI50 (P388/ADR) is on record?
A: 7.31 µM (inactive)

Q: What about the GI50 (SN12K1) of the same molecule?
A: 4.92 µM (inactive)

Q: What about the GI50 (P388) of the same molecule?
A: 5.55 µM (inactive)

Q: With `O=C(O)CCC(NC(=O)c1ccc(Nc2cnc3cc(C(F)(F)F)ccc3n2)cc1)C(=O)O` (stereo unspecified) as the molecule, how does the GI50 (P388/ADR) read?
A: > 100 µM (inactive)

Q: And the GI50 (SN12K1)?
A: > 100 µM (inactive)

Q: And the GI50 (P388)?
A: > 100 µM (inactive)
